The record followed here is patent US12410178B2, “Small cationic ortho-5,15-di-heteroaryl-porphyrin derivatives and their applications in photoinactivation of microorganisms” (UNIVERSIDADE DE COIMBRA, priority 2019, dated 2025).

What all share (format): cell-based
The test system of series [1] is Staphylococcus aureus methicillin-resistant (MRSA) strain Sa1CHUC. The experiment in a line: PDI phototoxicity towards multidrug-resistant planktonic bacteria (CFU). The conditions noted are these: 60 min incubation, 1.36 J/cm^2 at 415 nm. On the procedure: Phototoxicity towards bacteria was evaluated in vitro. Assays were performed with the following bacteria: Escherichia coli ATCC 25922, Pseudomonas aeruginosa ATCC 27853 and Staphylococcus aureus ATCC 29213. Further assay were performed with clinical antibiotic-resistant strains from the Centro Hospitalar da Universidade de Coimbra, namely Staphylococcus aureus methicillin-resistant (MRSA) strain Sa1CHUC recovered from the skin of a burnt patient (resistant to all beta-lactamic antibiotics), and Acinetobacter baumannii 141HUC isolated from an exudate of a burn wound and highly resistant to all beta-lactamics (penicillins, cephalosporins, monobactams and carbapenems), quinolones and the aminoglycosides gentamicin and netilmicin. The planktonic bacteria cells were cultured in Mueller Hinton (MH) agar (Sigma Aldrich) at 37° C. overnight. Cell density was adjusted to the 0.5 McFarland standard in sterile water, which corresponds to approximately 1.5×10^8 CFU/mL. For PDI experiments cell suspensions of bacteria were incubated with various concentrations of the photosensitizers for 1 h, in the dark, at room temperature, using a 96 well plate. Then, the plate was illuminated with a blue light LED (420 nm, 4 mJ/s). Cells incubated with photosensitizers in the dark were covered with aluminum foil for the same time as the PDI groups (1 h). After illumination (or dark incubation) samples were shaken, diluted in PBS and mixed. Aliquots were taken from each well and streaked in MH agar in duplicate for CFU determination and incubated for 37° C./18-24 h in the dark. After 24 h, the colonies were counted and CFU determined. The experiments were performed in triplicate. Statistical analysis was performed with GraphPad Prism 6.
This example describes the evaluation of in vitro phototoxicity against multidrug-resistant Gram-positive and Gram-negative bacteria of the cationic ortho-5,15-di-heteroaryl porphyrin with Formula (IIa). Assays were performed with clinical resistant strains from the Centro Hospitalar da Universidade de Coimbra, namely Staphylococcus aureus methicillin-resistant (MRSA) strain Sa1CHUC collected from the skin of a burnt patient (resistant to all beta-lactamic antibiotics), and Acinetobacter baumannii 141HUC highly resistant all beta-lactamics, including carbapenems, quinolones, gentamicin and netilmicin, isolated from an exudate of a burn wound. The phototoxicity was measured according to the description in the Materials and Methods section. […] There is a dose-phototoxicity response of the test compound relative to the non-treated control. FIG. 9 illustrates the CFU reduction as a function of photosensitizer concentration for the light dose of 1.36 J/cm^2 at 415 nm.

In series [2] the test system is Staphylococcus aureus ATCC 25925 biofilms. The experiment in a line: PDI phototoxicity towards biofilms (CFU). The procedure:
Phototoxicity towards biofilms was evaluated after biofilm growth overnight. Assays were performed with biofilms from Staphylococcus aureus ATCC 25925. Initially, bacteria cultures were diluted 1:9 in Brain Heart Infusion (BHI) (Kasvi®, Brazil). The microorganisms were centrifuged (1500 rpm, 10 min) and washed twice with phosphate-buffered saline (PBS). Aliquots of the diluted bacterial suspensions were inoculated into 24-well flat-bottom sterile polystyrene microplates and incubated for 24 h at 37° C. For PDI experiments, the plates with biofilms were incubated with 5.2 nM of the photosensitizer for 30 min in the dark at room temperature. Wells used as controls were incubated with PBS only. After that, the plates were illuminated with a specially designed light source named Biotable®. The Biotable® was composed by 24 LED lamps that deliver a uniform light fluence rate of 30 mW/cm^2 in the wavelength range between 400-650 rm. […] After this time, the colonies were counted and the colony-forming units (CFU) determined.
For the phototoxicity study, Staphylococcus aureus ATCC 25925 biofilms grown on 24-well flat-bottom sterile polystyrene microplates were incubated with 5.2 nM of the cationic ortho-5,15-di-heteroaryl porphyrin with Formula (IIa) for 30 min in the dark at room temperature. […] After this time, the colonies were counted and CFU determined. […]

Series [3] deals with HDFn neonatal human dermal fibroblast. The experiment in a line: Toxicity and phototoxicity towards human cell lines (MTT). The procedure:
(§1) Toxicity towards human cell lines was evaluated in vitro using the 3-(4,5-dimethylthiazol-2-yl)2,5-diphenyl tetrazolium bromide (MTT, from Sigma Aldrich) assay to estimate the viability of cells after appropriate treatment. After cell attachment, photosensitizer solutions in PBS at concentrations between 0 to 10 μM were added to the cell cultures and incubated for 1 h at 37° C. in the dark. After illumination with the Biotable® or after the equivalent time in control experiments, MTT dissolved at 5 mg/ml in PBS was added to each well (final concentration 0.5 mg/ml), and the microplates were further incubated for 3-4 hours. Medium were then discarded and 100 μl of methanol were added to the cultures and mixed thoroughly to dissolve the dark blue crystals of formazan. Formazan quantification was performed using an automatic microplate reader (Multiskan Go Thermo) by absorbance measurements at 570 nm. Each experiment was repeated three times. Data were expressed as mean absorbance value of six samples and standard error of the mean.
(§2) This example describes the evaluation of in vitro toxicity against HDFn neonatal human dermal fibroblast and HaCaT immortalized human keratinocyte cell lines of a cationic ortho-5,15-di-heteroaryl porphyrin with Formula (IIa). Both types of cells were grown in DMEM (BioTech) with addition of 10% fetal bovine serum (Cultilab—Campinas, SP, Brazil). Before the experiments, the cells were removed by trypsinization, washed with PBS and maintained in a humidified atmosphere at 37° C. and 5% CO2. The cells were incubated in the dark with the photosensitizer of Formula (IIa) in PBS for 30 min at concentrations up to 10 μM, and then illuminated with the Biotable® to deliver 5 J/cm^2 in the wavelength range between 400-700 nm. After exposure to light, the cells were washed with fresh medium and plates were returned to the incubator for 24 h. Cell viability was determined by a MTT assay performed 24 h after irradiation. The cells in the control experiment remained in the dark for the time of the illumination. […] Exposure to a light dose of 5 J/cm^2 led only to a 20% decrease in the viability of fibroblasts at the highest drug dose tested: 10 μM.

Series [4] deals with HaCaT immortalized human keratinocyte. Described as above. On the procedure:
as §1, §2

For the molecule `Cn1cc[n+](C)c1C1=C2C=CC3=[N+]2[Zn@]24[n]5c(ccc51)C=C1C=CC(=[N+]12)C(c1n(C)cc[n+]1C)=c1ccc([n]14)=C3` [Formula (IIa), 5,15-bis(1,3-dimethylimidazol-2-yl)porphyrinate zinc (II) diiodide], the “reduction of the number of bacterial CFU (in words)” value in series [1] (1 μM) is recorded as “dramatic decrease in CFU”. The “log CFU at 1 μM, S. Aureus MRSA” value in series [1] (planktonic) stood at 7. For the same molecule, in series [2] (5.2 nM, biofilm, 5 J/cm^2, 400-650 nm, 30 min incubation), the “log CFU at 5.2 nM, S. Aureus biofilm” value stood at 7. For the same molecule, in series [2] (ca. 5 nM, 5 J/cm^2 of white light), the “reduction of bacteria in the biofilm” value is on record as 7 orders of magnitude. Moreover, the “Dark cytotoxicity, cell viability” value in series [3] (10 μM, in the dark) is “did not show a statistically significant reduction of cell viability”; in series [4] (10 μM, in the dark), “did not show a statistically significant reduction of cell viability”. Besides, the “decrease in the viability” value in series [3] (10 μM, light dose 5 J/cm^2) stood at 20%. Besides, the “Survival fraction at 10 μM, Fibroblast” value in series [3] (light dose 5 J/cm^2) is listed as 100%. The “Survival fraction at 10 μM, Keratinocytes” value in series [4] (light dose 5 J/cm^2) is 80%.
